Target: human ATX (autotaxin, ENPP2), His-tagged (Homo sapiens (Human), UniProt Q13822)
Assay: Human ATX enzyme inhibition assay (fluorescence quenching, MR121 substrate)
Format: biochemical
Conditions: 30 nM ATX, 1 μM MR121 substrate, 30° C., pH 8.0
Experimental: Human ATX Enzyme Inhibition Assay
ATX inhibition was measured by a fluorescence quenching assay using a specifically labeled substrate analogue (MR121 substrate). To obtain this MR121 substrate, BOC and TBS protected 6-amino-hexanoic acid (R)-3-({2-[3-(2-{2-[2-(2-amino-ethoxy)-ethoxy]-ethoxy}-ethoxy)-propionylamino]-ethoxy}-hydroxy-phosphoryloxy)-2-hydroxy-propyl ester (Ferguson et al., Org. Lett. 2006, 8, 2023) was labeled with MR121 fluorophore [CAS RN 185308-24-1], 1-(3-carboxypropyl)-11-ethyl-1,2,3,4,8,9,10,11-octahydro-dipyrido[3,2-b:2′,3′-i]phenoxazin-13-ium) on the free amine of the ethanolamine side and then, after deprotection, subsequently with tryptophan on the side of the aminohexanoic acid.
Assay working solutions were made as follows:
Assay buffer (50 mM Tris-HCl, 140 mM NaCl, 5 mM KCl, 1 mM CaCl2, 1 mM MgCl2, 0.01% Triton-X-100, pH 8.0;
ATX solution: ATX (human His-tagged) stock solution (1.08 mg/mL in 20 mM bicine, pH 8.5, 0.15 M NaCl, 10% glycerol, 0.3% CHAPS, 0.02% NaN3), diluted to 1.4-2.5× final concentration in assay buffer;
MR121 substrate solution: MR121 substrate stock solution (800 μM MR121 substrate in DMSO), diluted to 2-5× final concentration in assay buffer.
Test compounds (10 mM stock in DMSO, 8 μL) were obtained in 384 well sample plates (Corning Costar #3655) and diluted with 8 μL DMSO. Row-wise serial dilutions were made by transferring 8 μL cpd solution to the next row up to row O. The compound and control solutions were mixed five times and 2 μL were transferred to 384 well assay plates (Corning Costar #3702). Then, 15 μL of 41.7 nM ATX solution was added (30 nM final concentration), mixed five times and then incubated for 15 minutes at 30° C. 10 μL of MR121 substrate solution was added (1 μM final concentration), mixed 30 times and then incubated for 15 minutes at 30° C.

| SMILES | IC50 |
| --- | --- |
| CC(C)NC(=O)N1CCN(c2ccc3ncn(CC(=O)NCc4ccc(Cl)c(Cl)c4)c(=O)c3c2)CC1 [Example 82, 4-[3-[2-[(3,4-Dichlorophenyl)methylamino]-2-oxoethyl]-4-oxoquinazolin-6-yl]-N-propan-2-ylpiperazine-1-carboxamide] | 43 nM |
| CC(=O)N1CCN(c2ccc3ncn(CC(=O)N[C@H](CC(N)=O)c4ccc(Cl)cc4)c(=O)c3c2)CC1 [Example 27] | 340 nM |
| CN(Cc1ccc(C#N)c(Cl)c1)C(=O)Cn1cnc2ccc(C3CCN(C(=O)CO)CC3)cc2c1=O [Example 131, N-[(3-Chloro-4-cyanophenyl)methyl]-2-[6-[1-(2-hydroxyacetyl)piperidin-4-yl]-4-oxoquinazolin-3-yl]-N-methylacetamide] | 1 nM |
| CCCCC(=O)N1CCN(c2ccc3ncn(CC(=O)NCc4ccc(Cl)c(Cl)c4)c(=O)c3c2)CC1 [Example 60] | 10 nM |
| CC(=O)N1CCCN(c2ccc3ncn(CC(=O)N(C)Cc4ccc(C#N)c(Cl)c4)c(=O)c3c2)CC1 [Example 120] | 9 nM |
| Cc1nc(C)c(CN2CCN(c3ccc4ncn(CC(=O)NCc5ccc(Cl)c(Cl)c5)c(=O)c4c3)CC2)o1 [Example 103] | 288 nM |
| CN(Cc1ccc(Cl)c(C#N)c1)C(=O)Cn1cnc2ccc(N3CCN(CC4CCOC4)CC3)cc2c1=O (centres unmarked) [Example 115, N-[(4-Chloro-3-cyanophenyl)methyl]-N-methyl-2-[4-oxo-6-[4-(oxolan-3-ylmethyl)piperazin-1-yl]quinazolin-3-yl]acetamide] | 29 nM |
| NC1(C(=O)N2CCN(c3ccc4ncn(CC(=O)NCc5ccc(Cl)c(Cl)c5)c(=O)c4c3)CC2)COC1 [Example 70, 2-[6-[4-(3-Aminooxetane-3-carbonyl)piperazin-1-yl]-4-oxoquinazolin-3-yl]-N-[(3,4-dichlorophenyl)methyl]acetamide] | 318 nM |
| CN(Cc1ccc(C#N)c(Cl)c1)C(=O)Cn1cnc2ccc(C3CCN(C(=O)C4CC4)CC3)cc2c1=O [Example 136] | 1 nM |
| CO[C@@H](C)C(=O)N1CCC(c2ccc3ncn(CC(=O)N(C)Cc4ccc(Cl)c(Cl)c4)c(=O)c3c2)CC1 [Example 168] | 27 nM |
| CN(Cc1ccc(C#N)c(Cl)c1)C(=O)Cn1cnc2ccc(C3CCN(C(=O)CCC#N)CC3)cc2c1=O [Example 155, N-[(3-Chloro-4-cyanophenyl)methyl]-2-[6-[1-(3-cyanopropanoyl)piperidin-4-yl]-4-oxoquinazolin-3-yl]-N-methylacetamide] | 153 nM |
| CC(=O)N1CCN(c2ccc3ncn(CC(=O)NCc4ccc(S(F)(F)(F)(F)F)cc4)c(=O)c3c2)CC1 [Example 39] | 12 nM |
| CC(=O)N1CCN(c2ccc3ncn(C(C)C(=O)N(C)Cc4ccc(Cl)c(Cl)c4)c(=O)c3c2)CC1 (centres unmarked) [Example 149, 2-[6-(4-Acetylpiperazin-1-yl)-4-oxoquinazolin-3-yl]-N-[(3,4-dichlorophenyl)methyl]-N-methylpropanamide] | 39 nM |
| Cn1cccc1CN1CCN(c2ccc3ncn(CC(=O)NCc4ccc(Cl)c(Cl)c4)c(=O)c3c2)CC1 [Example 99] | 31 nM |
| CN(Cc1ccc(Cl)c(Cl)c1)C(=O)Cn1cnc2ccc(C3CCN(C(=O)C4CCCO4)CC3)cc2c1=O (centres unmarked) [Example 180] | 5 nM |
| CC(=O)N1CCN(c2ccc3[nH]c(=O)n(CC(=O)NCc4ccc(Cl)c(Cl)c4)c(=O)c3c2)CC1 [Example 152, 2-[6-(4-Acetylpiperazin-1-yl)-2,4-dioxo-1H-quinazolin-3-yl]-N-[(3,4-dichlorophenyl)methyl]acetamide] | 180 nM |
| CC(C)NC(=O)CN1CCN(c2ccc3ncn(CC(=O)N(C)Cc4ccc(Cl)c(Cl)c4)c(=O)c3c2)CC1 [Example 109] | 35 nM |
| CN(Cc1ccc(Cl)c(Cl)c1)C(=O)Cn1cnc2ccc(N3CCN(C(=O)C4CC(Cl)C4)CC3)cc2c1=O (centres unmarked) [Example 77] | 3 nM |
| CC(=O)N1CCN(c2ccc3ncn(CC(=O)NCc4ccc(Cl)c(F)c4)c(=O)c3c2)CC1 [Example 24] | 33 nM |
| CN(Cc1ccc(Cl)c(Cl)c1)C(=O)Cn1cnc2ccc(N3CCN(C(=O)C4(C(F)(F)F)CCC4)CC3)cc2c1=O [Example 76] | 10 nM |

— patent publication US10676446B2, “Bicyclic quinazolinone derivatives” (Hoffmann-La Roche Inc., priority 2015, dated 2020)
